The record followed here is US20070049593A1 (priority 2004, published 2007).

SMILES strings stand for the structures. Counter-ions that a name gives are not always drawn.

This assay concerns the target T1, HCV polymerase (Hepatitis C virus genotype 1b, UniProt P26663).
T1 construct: a region encoding NS5B (J Virol 1991 March, 65(3), 1105-13, 544 amino acids after deletion of 47 amino acids on the C-terminal); 6xHis (C); made in house; host or cells: Escherichia coli
Put plainly: biochemical. Details: species or system HCV BK strain. The essentials: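 His-tagged NS5B (BK strain, 47-aa C-terminal deletion, E. coli-expressed) at 0.5 μg/ml copied 5 μg/ml run-off RNA bearing the HCV 3′ UTR with 2 μM UTP plus [3H]UTP, 50 μM ATP/GTP, in pH 7.5 Tris with 5 mM MgCl2, 25 °C, 90 min. TCA-precipitated RNA was counted and IC50 calculated.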

T1 sequence (P26663 2420-2963): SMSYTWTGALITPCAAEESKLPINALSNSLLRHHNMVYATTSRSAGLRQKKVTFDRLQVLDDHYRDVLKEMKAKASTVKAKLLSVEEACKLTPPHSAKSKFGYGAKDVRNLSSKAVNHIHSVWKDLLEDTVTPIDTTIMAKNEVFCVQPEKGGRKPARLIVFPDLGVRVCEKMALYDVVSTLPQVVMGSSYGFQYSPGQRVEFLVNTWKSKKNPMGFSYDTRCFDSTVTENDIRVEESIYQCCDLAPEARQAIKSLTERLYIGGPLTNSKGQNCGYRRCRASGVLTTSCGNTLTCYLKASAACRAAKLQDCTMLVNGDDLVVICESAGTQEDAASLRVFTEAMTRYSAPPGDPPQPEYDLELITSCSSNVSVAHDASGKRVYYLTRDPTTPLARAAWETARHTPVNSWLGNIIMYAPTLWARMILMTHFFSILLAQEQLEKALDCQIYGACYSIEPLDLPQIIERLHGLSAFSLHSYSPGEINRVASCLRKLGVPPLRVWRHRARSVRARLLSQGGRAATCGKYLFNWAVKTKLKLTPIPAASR

One may read the IC50 as the concentration that gives 50% inhibition. For `CCOc1ccc2c(c1)N(CCN1CCCC(CC)C1)CCn1c-2c(C2CCCCC2)c2ccc(C(=O)O)cc21` (stereo not shown) [Example 1-347, 13-cyclohexyl-3-ethoxy-5-[2-(3-ethylpiperidin-1-yl)ethyl]-6,7-dihydro-5H-benzo[5,6][1,4]diazepino[7,1-a]indole-10-carboxylic acid dihydrochloride], the half-inhibitory concentration (IC50) is < 100 nM. In the case of `CCC1CCCN(CCN2CCn3c(c(C4CCCCC4)c4ccc(C(=O)O)cc43)-c3ccc(OCc4ccccc4)cc32)C1` (stereo not shown) [Example 1-348, 3-benzyloxy-13-cyclohexyl-5-[2-(3-ethylpiperidin-1-yl)ethyl]-6,7-dihydro-5H-benzo[5,6][1,4]diazepino[7,1-a]indole-10-carboxylic acid dihydrochloride], the IC50 was < 100 nM. `CCOc1ccc2c(c1)N(CCC1CCCN(C(C)C)C1)CCn1c-2c(C2CCCCC2)c2ccc(C(=O)O)cc21` (stereo not shown) [Example 1-349, 13-cyclohexyl-3-ethoxy-5-[2-(1-isopropylpiperidin-3-yl)ethyl]-6,7-dihydro-5H-benzo[5,6][1,4]diazepino[7,1-a]indole-10-carboxylic acid dihydrochloride]: the 50% inhibitory concentration (IC50) was < 100 nM. Take `CCc1ccc2c(c1)N(CCN1CCCC(CC)C1)CCn1c-2c(C2CCCCC2)c2ccc(C(=O)O)cc21` (stereo not shown) [Example 1-350, 13-cyclohexyl-3-ethyl-5-[2-(3-ethylpiperidin-1-yl)ethyl]-6,7-dihydro-5H-benzo[5,6][1,4]diazepino[7,1-a]indole-10-carboxylic acid dihydrochloride]: the IC50 is < 100 nM. On to `CC(C)C1CCCN(CCN2CCn3c(c(C4CCCCC4)c4ccc(C(=O)O)cc43)-c3ccc(Cl)cc32)C1` (stereo not shown) [Example 1-351, 3-chloro-13-cyclohexyl-5-[2-(3-isopropylpiperidin-1-yl)ethyl]-6,7-dihydro-5H-benzo[5,6][1,4]diazepino[7,1-a]indole-10-carboxylic acid dihydrochloride], for which the half-maximal inhibitory concentration (IC50) is < 100 nM.

As to `COCC1CCCN(CCCN2CCn3c(c(C4CCCCC4)c4ccc(C(=O)O)cc43)-c3ccc(Cl)cc32)C1` (stereo not shown) [Example 1-352, 3-chloro-13-cyclohexyl-5-[3-(3-methoxymethylpiperidin-1-yl)propyl]-6,7-dihydro-5H-benzo[5,6][1,4]diazepino[7,1-a]indole-10-carboxylic acid monohydrochloride], the IC50 is < 100 nM. On to `CCC1CCCCN1CCCN1CCn2c(c(C3CCCCC3)c3ccc(C(=O)O)cc32)-c2ccc(Cl)cc21` (stereo not shown) [Example 1-353, 3-chloro-13-cyclohexyl-5-[3-(2-ethylpiperidin-1-yl)propyl]-6,7-dihydro-5H-benzo[5,6][1,4]diazepino[7,1-a]indole-10-carboxylic acid dihydrochloride], for which the half-inhibitory concentration (IC50) is < 100 nM. Regarding `CCCc1ccc2c(c1)N(CCC1CCCN(C(C)C)C1)CCn1c-2c(C2CCCCC2)c2ccc(C(=O)O)cc21` (stereo not shown) [Example 1-354, 13-cyclohexyl-5-[2-(1-isopropylpiperidin-3-yl)ethyl]-3-propyl-6,7-dihydro-5H-benzo[5,6][1,4]diazepino[7,1-a]indole-10-carboxylic acid dihydrochloride], the IC50 was < 100 nM. `COCC1CCCCN1CCCN1CCn2c(c(C3CCCCC3)c3ccc(C(=O)O)cc32)-c2ccc(Cl)cc21` (stereo not shown) [Example 1-355, 3-chloro-13-cyclohexyl-5-[3-(2-methoxymethylpiperidin-1-yl)propyl]-6,7-dihydro-5H-benzo[5,6][1,4]diazepino[7,1-a]indole-10-carboxylic acid dihydrochloride]: the IC50 was < 100 nM. Regarding `CCCc1ccc2c(c1)N(CCN1CCCC(C)C1)CCn1c-2c(C2CCCCC2)c2ccc(C(=O)O)cc21` (stereo not shown) [Example 1-356, 13-cyclohexyl-5-[2-(3-methylpiperidin-1-yl)ethyl]-3-propyl-6,7-dihydro-5H-benzo[5,6][1,4]diazepino[7,1-a]indole-10-carboxylic acid dihydrochloride], the IC50 was < 100 nM. On to `CCCc1ccc2c(c1)N(CCN1CCCC(CC)C1)CCn1c-2c(C2CCCCC2)c2ccc(C(=O)O)cc21` (stereo not shown) [Example 1-357, 13-cyclohexyl-5-[2-(3-ethylpiperidin-1-yl)ethyl]-3-propyl-6,7-dihydro-5H-benzo[5,6][1,4]diazepino[7,1-a]indole-10-carboxylic acid dihydrochloride], for which the IC50 is < 100 nM.

Take `COCC1CCCN(CCN2CCn3c(c(C4CCCCC4)c4ccc(C(=O)O)cc43)-c3ccc(OCc4ccccc4)cc32)C1` (stereo not shown) [Example 1-358, 3-benzyloxy-13-cyclohexyl-5-[2-(3-methoxymethylpiperidin-1-yl)ethyl]-6,7-dihydro-5H-benzo[5,6][1,4]diazepino[7,1-a]indole-10-carboxylic acid dihydrochloride]: the half-maximal inhibitory concentration (IC50) is < 100 nM. With `CC(C)c1ccc2c(c1)N(CCN1CCCC1)CCn1c-2c(C2CCCCC2)c2ccc(C(=O)O)cc21` [Example 1-359, 13-cyclohexyl-3-isopropyl-5-[2-(pyrrolidin-1-yl)ethyl]-6,7-dihydro-5H-benzo[5,6][1,4]diazepino[7,1-a]indole-10-carboxylic acid monohydrochloride], the IC50 was < 100 nM. In the case of `CCc1ccc2c(c1)N(CCN1CCCC1)CCn1c-2c(C2CCCCC2)c2ccc(C(=O)O)cc21` [Example 1-360, 13-cyclohexyl-3-ethyl-5-[2-(pyrrolidin-1-yl)ethyl]-6,7-dihydro-5H-benzo[5,6][1,4]diazepino[7,1-a]indole-10-carboxylic acid monohydrochloride], the concentration for half-maximal inhibition (IC50) was < 100 nM.

For the compound `CC1CCCN(CCN2CCn3c(c(C4CCCCC4)c4ccc(C(=O)O)cc43)-c3ccc(OCc4ccccc4)cc32)C1` (stereo not shown) [Example 1-361, 3-benzyloxy-13-cyclohexyl-5-[2-(3-methylpiperidin-1-yl)ethyl]-6,7-dihydro-5H-benzo[5,6][1,4]diazepino[7,1-a]indole-10-carboxylic acid dihydrochloride], the half-inhibitory concentration (IC50) is < 100 nM. Turning to `CC(C)N1CCCC(CCN2CCn3c(c(C4CCCCC4)c4ccc(C(=O)O)cc43)-c3ccc(OCc4ccccc4)cc32)C1` (stereo not shown) [Example 1-362, 3-benzyloxy-13-cyclohexyl-5-[2-(1-isopropylpiperidin-3-yl)ethyl]-6,7-dihydro-5H-benzo[5,6][1,4]diazepino[7,1-a]indole-10-carboxylic acid dihydrochloride], the IC50 was < 100 nM.

For the compound `Cc1cc(COc2ccc3c(c2)N(CCN2CCCCC2)CCn2c-3c(C3CCCCC3)c3ccc(C(=O)O)cc32)no1` [Example 1-363, 13-cyclohexyl-3-(5-methylisoxazol-3-ylmethoxy)-5-[2-(piperidin-1-yl)ethyl]-6,7-dihydro-5H-benzo[5,6][1,4]diazepino[7,1-a]indole-10-carboxylic acid dihydrochloride], the IC50 was < 100 nM.

Take `CC(C)C1CCCN(CCN2CCn3c(c(C4CCCCC4)c4ccc(C(=O)O)cc43)-c3ccccc32)C1` (stereo not shown) [Example 1-364, 13-cyclohexyl-5-[2-(3-isopropylpiperidin-1-yl)ethyl]-6,7-dihydro-5H-benzo[5,6][1,4]diazepino[7,1-a]indole-10-carboxylic acid dihydrochloride]: the half-maximal inhibitory concentration (IC50) was < 100 nM.

With `Cc1ccc2c(c1)N(CCN1CCCC(C(C)C)C1)CCn1c-2c(C2CCCCC2)c2ccc(C(=O)O)cc21` (stereo not shown) [Example 1-365, 13-cyclohexyl-5-[2-(3-isopropylpiperidin-1-yl)ethyl]-3-methyl-6,7-dihydro-5H-benzo[5,6][1,4]diazepino[7,1-a]indole-10-carboxylic acid dihydrochloride], the IC50 was < 100 nM. As for `CCc1ccc2c(c1)N(CCN1CCCC(COC)C1)CCn1c-2c(C2CCCCC2)c2ccc(C(=O)O)cc21` (stereo not shown) [Example 1-366, 13-cyclohexyl-3-ethyl-5-[2-(3-methoxymethylpiperidin-1-yl)ethyl]-6,7-dihydro-5H-benzo[5,6][1,4]diazepino[7,1-a]indole-10-carboxylic acid dihydrochloride], the IC50 was < 100 nM. On to `COCC1CCCN(CCN2CCn3c(c(C4CCCCC4)c4ccc(C(=O)O)cc43)-c3ccc(C(C)C)cc32)C1` (stereo not shown) [Example 1-367, 13-cyclohexyl-3-isopropyl-5-[2-(3-methoxymethylpiperidin-1-yl)ethyl]-6,7-dihydro-5H-benzo[5,6][1,4]diazepino[7,1-a]indole-10-carboxylic acid dihydrochloride], for which the half-maximal inhibitory concentration (IC50) was < 100 nM.

Turning to `CC1CCCN1CCCN1CCn2c(c(C3CCCCC3)c3ccc(C(=O)O)cc32)-c2ccc(Cl)cc21` (stereo not shown) [Example 1-368, 3-chloro-13-cyclohexyl-5-[3-(2-methylpyrrolidin-1-yl)propyl]-6,7-dihydro-5H-benzo[5,6][1,4]diazepino[7,1-a]indole-10-carboxylic acid], the concentration for half-maximal inhibition (IC50) is < 100 nM.

For `CCc1ccc2c(c1)N(CCC1CCCN(C(C)C)C1)CCn1c-2c(C2CCCCC2)c2ccc(C(=O)O)cc21` (stereo not shown) [Example 1-369, 13-cyclohexyl-3-ethyl-5-[2-(1-isopropylpiperidin-3-yl)ethyl]-6,7-dihydro-5H-benzo[5,6][1,4]diazepino[7,1-a]indole-10-carboxylic acid], the IC50 is < 100 nM. To `CCOc1ccc2c(c1)N(CCN1CCCC(COC)C1)CCn1c-2c(C2CCCCC2)c2ccc(C(=O)O)cc21` (stereo not shown) [Example 1-370, 13-cyclohexyl-3-ethoxy-5-[2-(3-methoxymethylpiperidin-1-yl)ethyl]-6,7-dihydro-5H-benzo[5,6][1,4]diazepino[7,1-a]indole-10-carboxylic acid] belongs < 100 nM. As for `CC(C)N1CCCC(OCCN2CCn3c(c(C4CCCCC4)c4ccc(C(=O)O)cc43)-c3ccc(Cl)cc32)C1` (stereo not shown) [Example 1-371, 3-chloro-13-cyclohexyl-5-[2-(1-isopropylpiperidin-3-yloxy)ethyl]-6,7-dihydro-5H-benzo[5,6][1,4]diazepino[7,1-a]indole-10-carboxylic acid], the IC50 is < 100 nM.
